Test results: ChEMBL document CHEMBL1201862, “PubChem BioAssay data set” (2004)
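Following 48 hours of exposure in 96-well plates, responses at five concentrations were used to interpolate endpoints linearly. GI50 marks 50% less growth.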 Active and inactive are the calls of the source. Cut-off read from the data, not from the text of the source: active = GI50 up to about 1.1 µM and inactive = higher.

Legend:
Test in all cases: DTP human tumour cell line panel, 48 h
MOLT-4 = test system: MOLT-4
A498 = test system: A498
HT-29 = test system: HT-29
HOP-18 = test system: HOP-18
IGROV-1 = test system: IGROV-1
DMS-273 = test system: DMS-273
A549 = test system: A549
KM12 = test system: KM12
KM-20L2 = test system: KM-20L2
XF498 = test system: XF498
RPMI-8226 = test system: RPMI-8226
LOX IMVI = test system: LOX IMVI
OVCAR-8 = test system: OVCAR-8
SK-OV-3 = test system: SK-OV-3
SNB-75 = test system: SNB-75
SNB-78 = test system: SNB-78
RXF 393 = test system: RXF 393

Row | SMILES | GI50 (MOLT-4) | GI50 (A498) | GI50 (HT-29) | GI50 (HOP-18) | GI50 (IGROV-1) | GI50 (DMS-273) | GI50 (A549) | GI50 (KM12) | GI50 (KM-20L2) | GI50 (XF498) | GI50 (RPMI-8226) | GI50 (LOX IMVI) | GI50 (OVCAR-8) | GI50 (SK-OV-3) | GI50 (SNB-75) | GI50 (SNB-78) | GI50 (RXF 393)
1 | N#C/C(=C\c1ccc(CP(=O)(O)O)cc1)C(N)=O | > 100 µM (inactive) | > 100 µM (inactive) | > 100 µM (inactive) | > 100 µM (inactive) | > 100 µM (inactive) | > 100 µM (inactive) | > 100 µM (inactive) | > 100 µM (inactive) | > 100 µM (inactive) | > 100 µM (inactive) | > 100 µM (inactive) | > 100 µM (inactive) | > 100 µM (inactive) | > 100 µM (inactive) |  |  | 
2 | O=C1C(=O)N(c2ccc(Cl)cc2Cl)C(=O)C(=O)C1c1nc2ccccc2o1 | > 100 µM (inactive) | > 100 µM (inactive) | > 100 µM (inactive) | > 100 µM (inactive) | > 100 µM (inactive) | > 100 µM (inactive) | > 100 µM (inactive) | > 100 µM (inactive) | > 100 µM (inactive) | > 100 µM (inactive) | > 100 µM (inactive) |  | > 100 µM (inactive) | > 100 µM (inactive) | > 100 µM (inactive) | > 100 µM (inactive) | 
3 | CCOC(=O)c1ccc(/N=N\c2ccc(N(CCC#N)CCC#N)cc2C)cc1 | > 100 µM (inactive) | > 100 µM (inactive) | > 100 µM (inactive) | 51.6 µM (inactive) | > 100 µM (inactive) | > 100 µM (inactive) | > 100 µM (inactive) | > 100 µM (inactive) |  |  | > 100 µM (inactive) | > 100 µM (inactive) | > 100 µM (inactive) | > 100 µM (inactive) |  | > 100 µM (inactive) | > 100 µM (inactive)
4 | Cc1cc([N+](=O)[O-])c(C)c2c1[nH]c1ccc(Cl)cc12 | 23.6 µM (inactive) |  | 89.5 µM (inactive) | > 100 µM (inactive) |  | 63.1 µM (inactive) | > 100 µM (inactive) | > 100 µM (inactive) |  | > 100 µM (inactive) | 50 µM (inactive) | > 100 µM (inactive) | > 100 µM (inactive) |  | > 100 µM (inactive) | > 100 µM (inactive) | 
5 | CN(C)CCN1N=Nc2cccc3cccc1c23 | 35.2 µM (inactive) | > 91.8 µM (inactive) | 45.6 µM (inactive) | > 100 µM (inactive) | > 100 µM (inactive) | 24.5 µM (inactive) | > 100 µM (inactive) | > 100 µM (inactive) | > 61.4 µM (inactive) | > 89.5 µM (inactive) | > 43.9 µM (inactive) | 83.8 µM (inactive) | 97.9 µM (inactive) | > 100 µM (inactive) | > 100 µM (inactive) |  | 
6 | CC(C)(C)C1CCC2c3c([nH]c4ncccc34)C3C(=O)N(c4ccccc4)C(=O)C3C2C1 (stereo not given) | > 100 µM (inactive) |  | > 100 µM (inactive) | > 100 µM (inactive) | > 100 µM (inactive) | > 100 µM (inactive) | > 100 µM (inactive) | > 100 µM (inactive) | > 100 µM (inactive) | > 100 µM (inactive) | > 100 µM (inactive) | > 100 µM (inactive) | 99.3 µM (inactive) | > 100 µM (inactive) | 24.6 µM (inactive) | 40.4 µM (inactive) | > 100 µM (inactive)
7 | Cc1cc(C)nc(NS(=O)(=O)c2ccc(NC(=O)c3cccc4c(=O)c5ccccc5[nH]c34)cc2)n1 | 30.5 µM (inactive) | 18.2 µM (inactive) | 21.3 µM (inactive) | 18.5 µM (inactive) | 26.1 µM (inactive) | 22.1 µM (inactive) | 22.7 µM (inactive) | 17 µM (inactive) | 19.5 µM (inactive) | 13.5 µM (inactive) | 10.9 µM (inactive) | 15.2 µM (inactive) | 19.2 µM (inactive) | 0.18 µM (active) | 18.5 µM (inactive) | 21.3 µM (inactive) | 
8 | CC(C)(C)NC(=O)C12C3C4C1C1C2C3C41I (stereo not given) | > 100 µM (inactive) | > 100 µM (inactive) | > 100 µM (inactive) |  |  | > 100 µM (inactive) | > 100 µM (inactive) | > 100 µM (inactive) | > 100 µM (inactive) | > 100 µM (inactive) | > 100 µM (inactive) | > 100 µM (inactive) | > 100 µM (inactive) |  |  | > 100 µM (inactive) | 
9 | Cc1cccc(C)c1NC(=O)C(=O)C(C(=O)c1ccccc1-c1ccccc1)C1OC(=O)c2ccccc21 (stereo not given) | 18.1 µM (inactive) | 18.7 µM (inactive) | 37.1 µM (inactive) |  | 25.6 µM (inactive) |  | 25.6 µM (inactive) | 20.9 µM (inactive) | 28.8 µM (inactive) | 15.9 µM (inactive) | 15.8 µM (inactive) | 19 µM (inactive) | 29.6 µM (inactive) | 27.6 µM (inactive) | 22 µM (inactive) | 24.8 µM (inactive) | 12.8 µM (inactive)
10 | CSc1ccc(-c2cn3ccsc3n2)c(O)c1 | 30.5 µM (inactive) | > 86.3 µM (inactive) | 83.2 µM (inactive) | > 76.6 µM (inactive) | > 100 µM (inactive) | 32.8 µM (inactive) | > 90.8 µM (inactive) | > 56.5 µM (inactive) | > 65.2 µM (inactive) | 30.2 µM (inactive) | 13.8 µM (inactive) | 20 µM (inactive) | > 89.9 µM (inactive) | > 82.4 µM (inactive) | 35.6 µM (inactive) | 42.3 µM (inactive) | 
11 | O=C(NCCCN1CCN(CCCNC(=O)Nc2cc(Cl)ccc2Cl)CC1)Nc1cc(Cl)ccc1Cl | > 100 µM (inactive) |  | 51.4 µM (inactive) | > 100 µM (inactive) | > 100 µM (inactive) | 22.3 µM (inactive) | > 100 µM (inactive) | > 100 µM (inactive) | 28.4 µM (inactive) | > 100 µM (inactive) | 80 µM (inactive) | 37 µM (inactive) | 61.8 µM (inactive) | 97.9 µM (inactive) | 15 µM (inactive) | 90.6 µM (inactive) | > 100 µM (inactive)
12 | O=c1c(Br)cc2nc3ccccc3sc-2c1Br | 22.2 µM (inactive) | > 100 µM (inactive) | > 100 µM (inactive) |  | > 100 µM (inactive) | > 100 µM (inactive) | > 94.8 µM (inactive) | > 100 µM (inactive) | > 100 µM (inactive) | 27.2 µM (inactive) | 18.5 µM (inactive) | 61.7 µM (inactive) | 19.5 µM (inactive) | > 100 µM (inactive) | > 100 µM (inactive) | > 100 µM (inactive) | > 100 µM (inactive)
13 | Cc1cccc(NC2=NC(=O)C(CC(=O)Nc3ccc(Cl)cc3C)S2)c1 (stereo not given) | > 100 µM (inactive) | 53.8 µM (inactive) | > 100 µM (inactive) | > 100 µM (inactive) | > 100 µM (inactive) | > 100 µM (inactive) | > 100 µM (inactive) | > 100 µM (inactive) | > 100 µM (inactive) |  | > 100 µM (inactive) | > 100 µM (inactive) | > 100 µM (inactive) | > 100 µM (inactive) | > 100 µM (inactive) |  | > 100 µM (inactive)
14 | CCC(O)CCCCCCCCCCCCCCC(=O)O (stereo not given) | 44.3 µM (inactive) | > 100 µM (inactive) | 40.8 µM (inactive) | > 100 µM (inactive) | > 100 µM (inactive) | > 100 µM (inactive) | > 100 µM (inactive) | 61.8 µM (inactive) |  | > 100 µM (inactive) | 66.8 µM (inactive) | > 10 µM (inactive) | > 100 µM (inactive) | > 100 µM (inactive) | > 100 µM (inactive) | > 100 µM (inactive) | > 100 µM (inactive)
15 | CN(C)c1ccc(C(C#N)NNC(=O)Cc2ccccc2)cc1 (stereo not given) | > 100 µM (inactive) |  | > 100 µM (inactive) | > 100 µM (inactive) | > 100 µM (inactive) | > 100 µM (inactive) | > 100 µM (inactive) | > 100 µM (inactive) | > 100 µM (inactive) |  | > 100 µM (inactive) | > 100 µM (inactive) | > 100 µM (inactive) | > 100 µM (inactive) | > 100 µM (inactive) | > 100 µM (inactive) | > 100 µM (inactive)
16 | CCN(CC)CCCNC(=O)Cc1ccccc1Nc1c(Cl)cccc1Cl | 11.4 µM (inactive) |  | 4.48 µM (inactive) |  | 18.4 µM (inactive) | 14.9 µM (inactive) | 18.3 µM (inactive) | 19.8 µM (inactive) | 3.81 µM (inactive) | 8.13 µM (inactive) | 12.4 µM (inactive) | 12.3 µM (inactive) | 16.2 µM (inactive) | 15.3 µM (inactive) | 8.75 µM (inactive) | 15.9 µM (inactive) | 15.8 µM (inactive)
17 | Nc1c(-c2ccc(Cl)cc2)[n+]([O-])c2ccccc2[n+]1[O-] | 27.3 µM (inactive) | 95.3 µM (inactive) | > 100 µM (inactive) | 20.7 µM (inactive) | > 100 µM (inactive) | > 100 µM (inactive) | > 100 µM (inactive) | > 100 µM (inactive) | > 100 µM (inactive) | 42.7 µM (inactive) | 34.5 µM (inactive) | > 100 µM (inactive) | > 100 µM (inactive) | > 100 µM (inactive) | 67.3 µM (inactive) | > 100 µM (inactive) | 
18 | CCCCCCCCCCCCCC/C(C(=O)OC)=C(/O)C(=O)OCC | 37.6 µM (inactive) | 33.2 µM (inactive) | 36.4 µM (inactive) | 27.6 µM (inactive) | 30 µM (inactive) | 94 µM (inactive) | 26.4 µM (inactive) | 19.9 µM (inactive) |  | 20.4 µM (inactive) | > 100 µM (inactive) | 17.8 µM (inactive) | 44.8 µM (inactive) | 35.3 µM (inactive) | 33 µM (inactive) | 64.1 µM (inactive) | 99.5 µM (inactive)
